The source of these data is ChEMBL document CHEMBL1201862, “PubChem BioAssay data set” (2004).

As usually defined, the CC50 is the concentration at which the toxic effect on the cells reaches its halfway point. One may read the AC50 as the concentration at which the activity in the assay is half-maximal. One may read the IC50 as the point on the concentration scale where inhibition reaches its midpoint. In general, EC50 refers to the concentration needed to bring the measured effect to its halfway point.

The nature of assay [1]: A Cell Based Secondary Assay To Explore Cytotoxicity of Compounds that Sensitize Mycobacterium Tuberculosis to Beta-Lactam Antibiotics. The class given is functional.
Assay [2] addresses T1, Acyl-homoserine lactone acylase PvdQ (Pseudomonas aeruginosa (strain LESB58), UniProt Q9I194).
T1 sequence (Q9I194 whole entry): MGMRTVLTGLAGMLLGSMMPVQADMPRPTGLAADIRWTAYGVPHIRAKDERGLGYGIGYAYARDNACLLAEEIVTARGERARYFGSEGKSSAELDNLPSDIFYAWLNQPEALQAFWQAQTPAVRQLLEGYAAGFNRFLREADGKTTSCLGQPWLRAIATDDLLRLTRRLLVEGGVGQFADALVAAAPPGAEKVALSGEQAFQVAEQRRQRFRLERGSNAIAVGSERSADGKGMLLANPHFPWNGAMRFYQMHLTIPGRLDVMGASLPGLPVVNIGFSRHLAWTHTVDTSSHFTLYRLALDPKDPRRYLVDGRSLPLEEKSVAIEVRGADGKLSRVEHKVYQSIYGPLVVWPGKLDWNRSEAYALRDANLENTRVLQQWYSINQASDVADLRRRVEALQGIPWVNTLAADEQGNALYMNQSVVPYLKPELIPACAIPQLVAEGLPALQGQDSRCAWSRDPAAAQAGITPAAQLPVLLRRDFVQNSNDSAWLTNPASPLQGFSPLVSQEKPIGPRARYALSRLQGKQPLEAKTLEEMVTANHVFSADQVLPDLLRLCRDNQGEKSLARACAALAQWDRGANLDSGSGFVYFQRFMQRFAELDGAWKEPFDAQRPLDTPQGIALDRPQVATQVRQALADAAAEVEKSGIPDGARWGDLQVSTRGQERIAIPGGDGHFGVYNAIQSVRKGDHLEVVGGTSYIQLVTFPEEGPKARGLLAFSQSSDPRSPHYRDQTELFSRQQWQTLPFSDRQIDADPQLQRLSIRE
In words: PvdQ acylase enzyme activity blockers – biochemical, fluorescence, plate reader and imaging, cherry-picks, dose response (AID 493231).

The target in assay [3] is T2, Aminopeptidase N (Plasmodium falciparum FcB1/Columbia, UniProt O96935).
T2 sequence (O96935 whole entry): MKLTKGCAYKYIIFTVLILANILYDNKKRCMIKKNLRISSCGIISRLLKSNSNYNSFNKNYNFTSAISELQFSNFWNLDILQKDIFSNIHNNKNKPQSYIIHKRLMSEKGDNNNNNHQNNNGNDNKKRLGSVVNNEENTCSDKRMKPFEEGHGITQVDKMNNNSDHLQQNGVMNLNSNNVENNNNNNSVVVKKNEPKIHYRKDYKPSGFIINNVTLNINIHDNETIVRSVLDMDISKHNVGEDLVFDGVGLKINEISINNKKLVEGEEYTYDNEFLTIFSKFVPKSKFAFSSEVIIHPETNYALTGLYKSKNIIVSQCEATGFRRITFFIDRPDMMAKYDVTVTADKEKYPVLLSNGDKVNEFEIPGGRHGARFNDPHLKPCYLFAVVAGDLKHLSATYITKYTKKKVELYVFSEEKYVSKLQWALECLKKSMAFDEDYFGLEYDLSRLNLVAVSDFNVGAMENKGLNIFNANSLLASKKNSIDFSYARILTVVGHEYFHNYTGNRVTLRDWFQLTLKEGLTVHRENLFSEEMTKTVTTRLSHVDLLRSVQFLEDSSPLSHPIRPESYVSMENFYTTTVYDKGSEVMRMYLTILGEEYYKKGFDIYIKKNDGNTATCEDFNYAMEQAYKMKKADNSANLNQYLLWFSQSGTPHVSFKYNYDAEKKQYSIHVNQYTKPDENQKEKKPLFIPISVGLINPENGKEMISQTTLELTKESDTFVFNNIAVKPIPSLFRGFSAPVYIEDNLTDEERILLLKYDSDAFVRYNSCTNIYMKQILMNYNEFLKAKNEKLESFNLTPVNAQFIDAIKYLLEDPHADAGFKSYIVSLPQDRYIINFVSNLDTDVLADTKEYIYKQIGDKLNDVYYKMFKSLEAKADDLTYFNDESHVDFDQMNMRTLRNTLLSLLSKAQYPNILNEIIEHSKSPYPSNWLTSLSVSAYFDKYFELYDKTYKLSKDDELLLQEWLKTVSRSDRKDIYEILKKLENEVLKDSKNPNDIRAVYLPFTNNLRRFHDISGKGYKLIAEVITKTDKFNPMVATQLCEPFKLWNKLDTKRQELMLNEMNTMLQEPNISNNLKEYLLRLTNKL
In words: malaria alanyl aminopeptidase activity blockers – biochemical, fluorogenic H-Leu-NHMec substrate, 1536-well (AID 1445). Further details: species or system Plasmodium falciparum 3D7, 3D7.

Assay [4] in a line: decrease of insulin promoter-GFP reporter – imaging, high-content screening, mouse beta cells (AID 1628). The settings on record: MIN6. The assay is classed as functional.
The nature of assay [5]: MIN6 cell viability loss – mouse insulinoma, cytotoxicity control, dose response (AID 2122).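 Note: confirmatory high-throughput counterscreen run to flag cytotoxic compounds.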 The class given is functional.
Assay [6] concerns the target T3, ORF 73 (Human herpesvirus 8, UniProt O40947).
T3 sequence (O40947 whole entry): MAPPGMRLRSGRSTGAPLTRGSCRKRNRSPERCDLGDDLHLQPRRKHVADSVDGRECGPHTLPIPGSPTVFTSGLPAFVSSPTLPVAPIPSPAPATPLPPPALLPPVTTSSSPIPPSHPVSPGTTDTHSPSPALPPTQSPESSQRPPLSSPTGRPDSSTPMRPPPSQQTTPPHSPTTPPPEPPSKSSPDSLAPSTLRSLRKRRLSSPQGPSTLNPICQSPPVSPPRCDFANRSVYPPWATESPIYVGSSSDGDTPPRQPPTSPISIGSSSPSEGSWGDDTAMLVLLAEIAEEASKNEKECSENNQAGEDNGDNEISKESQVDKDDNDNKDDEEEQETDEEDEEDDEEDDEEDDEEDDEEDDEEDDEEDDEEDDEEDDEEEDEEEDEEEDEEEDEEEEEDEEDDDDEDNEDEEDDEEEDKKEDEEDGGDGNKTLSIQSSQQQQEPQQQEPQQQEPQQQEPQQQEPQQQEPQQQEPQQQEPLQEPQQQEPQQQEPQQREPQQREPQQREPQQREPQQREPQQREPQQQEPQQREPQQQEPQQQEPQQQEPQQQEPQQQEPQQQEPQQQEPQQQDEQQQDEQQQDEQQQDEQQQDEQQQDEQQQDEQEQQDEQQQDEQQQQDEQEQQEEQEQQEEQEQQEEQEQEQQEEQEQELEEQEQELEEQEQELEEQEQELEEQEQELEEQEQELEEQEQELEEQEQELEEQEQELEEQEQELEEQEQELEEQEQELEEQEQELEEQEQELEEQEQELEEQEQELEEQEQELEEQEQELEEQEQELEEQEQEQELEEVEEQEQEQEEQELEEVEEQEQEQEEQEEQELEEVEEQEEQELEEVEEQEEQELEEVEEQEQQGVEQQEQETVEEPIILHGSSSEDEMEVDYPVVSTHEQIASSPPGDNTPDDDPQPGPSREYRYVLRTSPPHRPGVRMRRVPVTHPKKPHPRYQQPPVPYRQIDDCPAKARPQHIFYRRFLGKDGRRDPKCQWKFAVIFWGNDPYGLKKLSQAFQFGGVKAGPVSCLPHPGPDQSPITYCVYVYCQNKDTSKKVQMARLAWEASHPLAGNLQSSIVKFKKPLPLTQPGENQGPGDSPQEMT
In words: KSHV LANA DNA-binding disruption – biochemical, fluorescence polarization, cherry-picked samples, dose response (AID 504725).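 Note: fluorescence polarization of a labeled DNA duplex reporting LANA DNA binding; potency is for inhibitors that block LANA binding to the DNA.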 Further details: species or system Human gammaherpesvirus 8. In general terms: Polarisation of emitted light reports the rotation of a fluorescent probe.

Assay [7] in a line: Trypanosoma cruzi growth suppression in host cells – NIH3T3 host cells, beta-gal luminescence, confirmation (AID 2044).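 Note: intracellular parasites grown in NIH/3T3 mouse fibroblasts as host cells; luminescent beta-galactosidase reporter signal from transgenic T. cruzi replicating inside host cells; inhibitors lower the luminescence signal.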 The class given is functional, cell-based.
Assay [8] has as its system HEK293. In words: EBV LMP1 TES2 canonical NF-kB signalling blockers – cell-based, HEK293, luciferase, cherry-pick, dose response (AID 588343). The assay is classed as functional. As to conditions: Homo sapiens.
Assay [9] is described as follows: NIH3T3 cell viability loss – ATP luminescence, mouse fibroblasts, counter-screen, dose response (AID 2010).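 Note: cells exposed to compound for about 90 hours before reading.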 The class given is functional, cell-based. Background: A counterscreen serves to expose hits that act by an unwanted route or on another target.
In assay [10] the target is T4, Rac GTPase-activating protein 1 (Homo sapiens, UniProt Q9H0H5).
T4 sequence (Q9H0H5 whole entry): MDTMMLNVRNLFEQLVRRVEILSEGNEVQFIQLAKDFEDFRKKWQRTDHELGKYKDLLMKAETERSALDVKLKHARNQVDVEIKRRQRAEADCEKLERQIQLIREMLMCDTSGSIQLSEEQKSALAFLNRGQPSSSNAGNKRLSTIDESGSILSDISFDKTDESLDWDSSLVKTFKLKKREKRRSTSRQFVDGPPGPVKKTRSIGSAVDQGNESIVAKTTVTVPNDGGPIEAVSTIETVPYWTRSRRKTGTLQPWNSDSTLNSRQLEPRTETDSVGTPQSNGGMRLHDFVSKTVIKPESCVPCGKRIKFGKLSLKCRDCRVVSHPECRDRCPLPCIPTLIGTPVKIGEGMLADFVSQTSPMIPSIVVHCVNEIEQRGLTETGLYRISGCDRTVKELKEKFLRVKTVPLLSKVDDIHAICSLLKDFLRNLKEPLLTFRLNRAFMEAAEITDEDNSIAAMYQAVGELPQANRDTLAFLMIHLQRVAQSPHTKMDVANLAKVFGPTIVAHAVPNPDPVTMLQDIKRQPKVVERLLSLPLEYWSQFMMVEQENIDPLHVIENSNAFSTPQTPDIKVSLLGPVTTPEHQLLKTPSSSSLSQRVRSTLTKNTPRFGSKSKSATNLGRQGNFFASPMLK
In words: blockers of MgcRacGAP-driven Rac1 GTP hydrolysis – biochemical, ADP Hunter fluorescence, primary and confirmatory, confirmation (AID 624330). The class given is functional.

Assay [11] deals with T5, Leucine aminopeptidase (Plasmodium falciparum 3D7, UniProt Q8IL11).
T5 sequence (Q8IL11 whole entry): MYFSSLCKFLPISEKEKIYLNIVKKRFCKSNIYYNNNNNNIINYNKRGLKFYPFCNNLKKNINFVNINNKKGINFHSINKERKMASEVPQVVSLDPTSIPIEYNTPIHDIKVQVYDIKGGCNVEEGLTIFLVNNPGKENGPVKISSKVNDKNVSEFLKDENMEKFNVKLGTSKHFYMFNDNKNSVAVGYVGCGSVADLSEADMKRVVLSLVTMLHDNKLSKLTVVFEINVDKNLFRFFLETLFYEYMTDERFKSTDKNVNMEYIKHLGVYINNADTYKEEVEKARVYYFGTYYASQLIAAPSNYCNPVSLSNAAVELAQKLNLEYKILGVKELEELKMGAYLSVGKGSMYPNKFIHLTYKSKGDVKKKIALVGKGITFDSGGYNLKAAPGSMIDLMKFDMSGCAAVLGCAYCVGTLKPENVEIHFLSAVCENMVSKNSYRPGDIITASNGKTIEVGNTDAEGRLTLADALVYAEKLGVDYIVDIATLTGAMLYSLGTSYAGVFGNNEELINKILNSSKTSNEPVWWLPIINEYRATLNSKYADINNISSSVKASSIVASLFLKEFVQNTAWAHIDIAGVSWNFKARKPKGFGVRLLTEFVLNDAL
In words: P. falciparum M17LAP inhibitors, primary screen, biochemical, fluorogenic H-Leu-NHMec substrate, 1536-well (AID 1619). The assay is classed as functional.

Assay [12] has as its target Large T antigen (Simian virus 40, UniProt P03070). The class given is functional, Betapolyomavirus macacae.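 Note: Confirmatory-stage PubChem screen for compounds that inhibit SV40 T antigen.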

Activity calls are given as the source filed them. A value given as a limit tells only on which side of the number the result lay.

Large T antigen, sequence (P03070 whole entry): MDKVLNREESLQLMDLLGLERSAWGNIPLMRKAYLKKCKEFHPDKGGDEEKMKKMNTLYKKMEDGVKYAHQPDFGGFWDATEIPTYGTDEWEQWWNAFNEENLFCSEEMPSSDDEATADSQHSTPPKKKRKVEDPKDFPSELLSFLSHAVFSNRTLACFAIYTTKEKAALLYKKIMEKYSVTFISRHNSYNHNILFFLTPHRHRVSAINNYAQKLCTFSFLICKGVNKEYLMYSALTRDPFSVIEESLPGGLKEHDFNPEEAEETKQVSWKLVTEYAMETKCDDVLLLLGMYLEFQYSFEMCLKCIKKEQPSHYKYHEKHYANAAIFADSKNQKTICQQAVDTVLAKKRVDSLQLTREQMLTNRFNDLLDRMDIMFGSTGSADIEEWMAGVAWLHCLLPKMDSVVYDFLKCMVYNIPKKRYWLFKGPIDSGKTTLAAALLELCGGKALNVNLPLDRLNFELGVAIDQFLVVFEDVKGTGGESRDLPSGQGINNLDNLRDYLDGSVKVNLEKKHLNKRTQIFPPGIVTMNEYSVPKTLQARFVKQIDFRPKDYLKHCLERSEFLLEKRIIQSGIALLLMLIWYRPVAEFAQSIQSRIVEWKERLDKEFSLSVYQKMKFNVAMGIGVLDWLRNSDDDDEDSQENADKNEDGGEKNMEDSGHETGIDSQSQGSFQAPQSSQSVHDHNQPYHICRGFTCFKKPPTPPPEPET

Regarding `COCc1cc(O)n2ncc(-c3ccccc3)c2n1`, the CC50 in [1] was > 40 µM (active).

Take `O=C(/C=C/c1ccc2c(c1)OCCO2)c1ccccc1`: the AC50 in assay [2] was 29.3 µM (active).

Take `CCOC(=O)N1CCN(C(=O)c2ccc3c(c2)sc2nc(-c4ccccc4)cn23)CC1`: in [3], the IC50 was 73.4 µM (active).

`Cn1nc(-c2ccc(OCC(=O)NCC3CCCO3)cc2)c2ccccc2c1=O` (stereo not drawn): the CC50 in [1] is > 40 µM (active).

On to `Cc1cccc(NC(S)=NC(C)(C)CC(C)(C)C)c1`, for which the IC50 in assay [4] was 1.92 µM (active); in assay [5], 1.87 µM (active).

`O=C(/C=C/c1cccc([N+](=O)[O-])c1)N1CCN(Cc2ccc3c(c2)OCO3)CC1`: in assay [3], the IC50 was 108 µM (active).

Regarding `COc1ccc(Cn2c(C)nc3c(c(=O)c4ccccc4n3C)c2=O)cc1`, the CC50 in assay [1] was > 40 µM (active).

With `COCCN(CCOC)Cc1c(O)ccc2c1O/C(=C\c1ccco1)C2=O`, the AC50 in assay [6] is 11.9 µM (active).

On to `Cc1ccc(NC(=O)Nc2cccs2)nc1`, for which, in assay [3], the IC50 was 26.4 µM (active).

For `COc1ccc(NC(=S)N(CCCN2CCCC2)Cc2cccn2Cc2ccc(Cl)cc2)cc1Cl`, the figures for the IC50 in assay [4] and in assay [5] were 2.89 µM (active) and 3.27 µM (active), respectively.

`C=CCOC(=O)c1ccc(-n2cnc(C)n2)nc1`: the AC50 in [2] was 4.58 µM (active).

Regarding `CCOc1ccc(Nc2ncnc3ccc([N+](=O)[O-])cc23)cc1`, the figures for the EC50 in assay [7] and in assay [9] were 2.22 µM (active) and > 60 µM (not active), respectively. The AC50 in assay [8] was 8.95 µM (active); in [2], 30.8 µM (active).

Turning to `O=[N+]([O-])c1ccc(-c2cccnc2)cc1`, the AC50 in assay [2] is 13.1 µM (active).

As to `COc1ccc2c(c1)c(C(=O)N/N=C/c1ccc(O)c(O)c1)c(C)n2C`, the IC50 in assay [10] is 23.5 µM (active); in assay [11] it was 29.7 µM (active); in assay [12], 16.7 µM (active).

For `C/C(=N\Nc1cc(N2CCOCC2)nc(C)n1)c1cccc([N+](=O)[O-])c1`, the IC50 was 1.98 µM (active) in [4] and 3.14 µM (active) in assay [5].
